Experimental data as given in patent publication US20080305175A1, “Micro-Container” (AGENCY FOR SCIENCE, TECHNOLOGY AND RESEARCH, priority 2006, published 2008).
Counter-ions that a name gives are not always drawn.

Key:
[1] = In vivo release test, DOX concentration in blood after subcutaneous administration; parameters: species or system Male Sprague Dawley rats; settings: rat, 1 mg DOX in normal saline subcutaneously, ~20 mL blood in a rat
Description: Male Sprague Dawley rats (8 weeks, average weight 250 g) were stabilized for 1 week with free access to food and water. Microcontainers loaded with DOX were subcutaneously administered into the rats at a level of 3.7 mg/Kg (10 mg microspheres containing 1 mg DOX were freshly dispersed in 0.5 mL of normal saline solution for each rat). […] The blood samples were separated by centrifugation at 2000 g at 4° C. for 10 min and the obtained plasma samples were then stored at −20° C. prior to analysis. Just before the DOX extraction, the plasma samples were thawed followed by adding 3 ml of 70% ethanol and 30% 0.45 M HCl aqueous solution by volume. The obtained suspensions were mixed for 30 s to form gels. These gels were first stored at 4° C. for 24 hours in dark, and then centrifuged at 10,000 g for 15 min. The supernatants were transferred into glass cuvettes and allowed to warm to room temperature for the determination of DOX concentration by a fluorescence spectrophotometer.

[2] = cited from earlier work

SMILES	DOX concentration level that can be reached in blood [1] [µg/mL]	solubility in water ([2]; water) [µg/mL]	stability versus pH ([2]; pH of more than 6.5)
COc1cccc2c1C(=O)c1c(O)c3c(c(O)c1C2=O)C[C@@](O)(C(=O)CO)C[C@@H]3O[C@H]1C[C@H](N)[C@H](O)[C@H](C)O1 [DOX, Doxorubicin hydrochloride]	50	10000	
COc1cccc2c1C(=O)c1c(O)c3c(c(O)c1C2=O)C[C@@](O)(C(=O)CO)C[C@@H]3O[C@H]1C[C@H](N)[C@H](O)[C@H](C)O1 [Doxorubicin, doxorubicin]			unstable
